Structures can show the parent of a compound that is named as a salt. A value given as a limit tells only on which side of the number the result lay.

For this assay, the target named is h-Sortilin (Homo sapiens (Human), UniProt Q99523). Put plainly: Neurotensin (NTS) scintillation proximity assay (SPA): displacement of [3H]-neurotensin binding. The conditions noted are these: 150 nM 6his-Sortilin, 5 nM [3H]-Neurotensin; average of at least 2 determinations. The procedure: The exemplified compounds of the invention were tested in a Neurotensin (NTS) scintillation proximity assay (SPA). NTS, which is a 13 amino acid neuropeptide, is a sortilin ligand. The IC50 is a measure of the amount of the compound required to inhibit the binding of NTS to sortilin by 50%. […] Compound affinity was determined by measuring the displacement of [^3H]-neurotensin binding to h-Sortilin in SPA format. […] IC50 values were calculated by nonlinear regression using the sigmoid concentration-response (variable slope) using CDD Vault software. All values reported are average of at least 2 determinations.
Sequence of h-Sortilin (Q99523 78-831): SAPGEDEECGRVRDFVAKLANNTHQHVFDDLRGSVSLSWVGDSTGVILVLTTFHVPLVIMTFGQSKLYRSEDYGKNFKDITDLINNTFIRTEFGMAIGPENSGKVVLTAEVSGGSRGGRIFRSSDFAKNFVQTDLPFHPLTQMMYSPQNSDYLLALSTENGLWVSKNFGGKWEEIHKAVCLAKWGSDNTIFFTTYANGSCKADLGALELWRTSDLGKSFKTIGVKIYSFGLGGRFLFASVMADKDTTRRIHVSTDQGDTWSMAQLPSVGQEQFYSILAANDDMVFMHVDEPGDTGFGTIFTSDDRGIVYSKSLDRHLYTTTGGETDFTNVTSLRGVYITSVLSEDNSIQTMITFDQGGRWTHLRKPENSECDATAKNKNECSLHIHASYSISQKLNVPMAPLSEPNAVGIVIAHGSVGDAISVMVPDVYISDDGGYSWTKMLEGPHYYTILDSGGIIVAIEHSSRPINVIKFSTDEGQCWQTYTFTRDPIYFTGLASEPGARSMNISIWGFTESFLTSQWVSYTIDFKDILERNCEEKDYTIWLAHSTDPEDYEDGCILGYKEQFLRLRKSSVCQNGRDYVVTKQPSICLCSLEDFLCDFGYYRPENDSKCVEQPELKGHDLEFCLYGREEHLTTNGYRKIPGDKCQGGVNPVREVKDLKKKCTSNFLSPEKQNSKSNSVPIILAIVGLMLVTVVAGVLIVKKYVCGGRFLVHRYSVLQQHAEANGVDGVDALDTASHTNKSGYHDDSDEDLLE
Background: Scintillation proximity formats need no separation of bound from free tracer.
As usually defined, the IC50 is the point on the concentration scale where inhibition reaches its midpoint. Higher therefore signals weaker potency in that assay. As for `Cc1cc(=O)oc2c(CN[C@@H](CCC(C)(C)C)C(=O)O)c(O)ccc12` [Example 1, (S)-2-(((7-hydroxy-4-methyl-2-oxo-2H-chromen-8-yl)methyl)amino)-5,5-dimethylhexanoic acid], the IC50 amounted to 75 nM.

In the case of `Cc1cc2cccc(CN[C@@H](CCC(C)(C)C)C(=O)O)c2cn1` [Example 4, (2S)-5,5-dimethyl-2-{[(3-methylisoquinolin-8-yl)methyl]amino}hexanoic acid], the half-inhibitory concentration (IC50) worked out at 660 nM.

Compound `CC(C)(C)CC[C@H](NCc1cccc2ccncc12)C(=O)O` [Example 7, (2S)-2-{[(isoquinolin-8-yl)methyl]amino}-5,5-dimethylhexanoic acid] had an IC50 of 950 nM.

`CC(C)(C)CC[C@H](NC(c1ccccc1)c1ccccc1)C(=O)O` [Example 8, (S)-2-(benzhydrylamino)-5,5-dimethylhexanoic acid hydrochloride] had a concentration for half-maximal inhibition (IC50) of 270 nM.

In turn, `CC(C)(C)CC[C@H](NCc1ccccc1OC(F)(F)F)C(=O)O` [Example 10, (2S)-5,5-dimethyl-2-({[2-(trifluoromethoxy)phenyl]methyl}amino)hexanoic acid] gave an IC50 of 975 nM.

With `CC(C)(C)CC[C@H](NCc1ccccc1F)C(=O)O` [Example 11, (2S)-2-{[(2-fluorophenyl)methyl]amino}-5,5-dimethylhexanoic acid], the half-maximal inhibitory concentration (IC50) stood at 1830 nM.

`CC(C)(C)CC[C@H](NCc1c(F)cccc1F)C(=O)O` [Example 12, (2S)-2-{[(2,6-difluorophenyl)methyl]amino}-5,5-dimethylhexanoic acid] came in with an IC50 of 2840 nM.

The compound `CC(C)(C)CC[C@H](NCc1ccccc1C(F)(F)F)C(=O)O` [Example 13, (2S)-5,5-dimethyl-2-({[2-(trifluoromethyl)phenyl]methyl}amino)hexanoic acid] had an IC50 of 1020 nM.

In turn, `C[C@@H](N[C@@H](CCC(C)(C)C)C(=O)O)c1ccccc1` [Example 14, (S)-5,5-dimethyl-2-(((R)-1-phenylethyl)amino)hexanoic acid hydrochloride] gave an IC50 of 610 nM.

Consider `C[C@H](N[C@@H](CCC(C)(C)C)C(=O)O)c1ccccc1` [Example 15, (S)-5,5-dimethyl-2-(((S)-1-phenylethyl)amino)hexanoic acid hydrochloride], for which the IC50 turned out to be 3480 nM.

`CC(C)(C)CC[C@H](N[C@@H](c1ccccc1)C(F)(F)F)C(=O)O` [Example 16, (S)-5,5-dimethyl-2-(((S)-2,2,2-trifluoro-1-phenylethyl)amino)hexanoic acid] displayed a 50% inhibitory concentration (IC50) of 1480 nM.

Turning to `CC(C)(C)CC[C@H](N[C@@H](c1ccccc1)C(F)F)C(=O)O` [Example 17, (2S)-2-{[(1S)-2,2-difluoro-1-phenylethyl]amino}-5,5-dimethylhexanoic acid], the IC50 was determined as 1610 nM.

`CC(C)(C)CC[C@H](N[C@H](c1ccccc1)C(F)(F)F)C(=O)O` [Example 18, (S)-5,5-dimethyl-2-(((R)-2,2,2-trifluoro-1-phenylethyl)amino)hexanoic acid] yielded an IC50 of 725 nM.

`CC(C)(C)CC[C@H](N[C@H](c1ccccc1)C(F)F)C(=O)O` [Example 19, (2S)-2-{[(1R)-2,2-difluoro-1-phenylethyl]amino}-5,5-dimethylhexanoic acid] returned an IC50 of 565 nM.

For `CC(C)(C)CC[C@H](NC1=Nc2ccccc2Oc2ccccc21)C(=O)O` [Example 20, (2S)-5,5-dimethyl-2-({2-oxa-9-azatricyclo[9.4.0.0^3,8]pentadeca-1(11),3(8),4,6,9,12,14-heptaen-10-yl}amino)hexanoic acid], the IC50 stood at 1490 nM.

With `CC(C)(C)CC[C@H](NCc1cccc(CO)c1)C(=O)O` [Example 25, (2S)-2-({[3-(hydroxymethyl)phenyl]methyl}amino)-5,5-dimethylhexanoic acid], the IC50 was 1380 nM.

With `CC(C)(C)CC[C@H](NCc1cc(Cl)cc(Cl)c1)C(=O)O` [Example 32, (2S)-2-{[(3,5-dichlorophenyl)methyl]amino}-5,5-dimethylhexanoic acid], the IC50 was 840 nM.

`CC(C)(C)CC[C@H](NCc1ccc2ccccc2n1)C(=O)O` [Example 36, (2S)-5,5-dimethyl-2-{[(quinolin-2-yl)methyl]amino}hexanoic acid] gave a half-inhibitory concentration (IC50) of 1600 nM.

In the case of `COc1ccc(CN[C@@H](CCC(C)(C)C)C(=O)O)cc1F` [Example 37, (2S)-2-{[(3-fluoro-4-methoxyphenyl)methyl]amino}-5,5-dimethylhexanoic acid], the half-inhibitory concentration (IC50) is 710 nM.

`CC(C)(C)CC[C@H](NCc1cccc2c1CCCC2)C(=O)O` [Example 39, (2S)-5,5-dimethyl-2-{[(5,6,7,8-tetrahydronaphthalen-1-yl)methyl]amino}hexanoic acid] yielded a 50% inhibitory concentration (IC50) of 360 nM.

For `CC(C)(C)CC[C@H](NCc1ccc2nccnc2c1)C(=O)O` [Example 42, (2S)-5,5-dimethyl-2-{[(quinoxalin-6-yl)methyl]amino}hexanoic acid], the 50% inhibitory concentration (IC50) is 400 nM.

Compound `CC(C)(C)CC[C@H](NCc1cnc2[nH]ccc2c1)C(=O)O` [Example 43, (2S)-5,5-dimethyl-2-[({1H-pyrrolo[2,3-b]pyridin-5-yl}methyl)amino]hexanoic acid] had a concentration for half-maximal inhibition (IC50) of 470 nM.

The compound `CC(C)(C)CC[C@H](NCc1ccnc2[nH]ccc12)C(=O)O` [Example 44, (2S)-5,5-dimethyl-2-[({1H-pyrrolo[2,3-b]pyridin-4-yl}methyl)amino]hexanoic acid] yielded an IC50 of 850 nM.

`CC(C)(C)CC[C@H](NCc1cccc2cccnc12)C(=O)O` [Example 47, (2S)-5,5-dimethyl-2-{[(quinolin-8-yl)methyl]amino}hexanoic acid] showed a concentration for half-maximal inhibition (IC50) of 1950 nM.

As for `CC(C)(C)CC[C@H](NCc1cccc2ncccc12)C(=O)O` [Example 48, (2S)-5,5-dimethyl-2-{[(quinolin-5-yl)methyl]amino}hexanoic acid], the concentration for half-maximal inhibition (IC50) was determined as 1060 nM.

Turning to `COc1ccc2ccccc2c1CN[C@@H](CCC(C)(C)C)C(=O)O` [Example 49, (2S)-2-{[(2-methoxynaphthalen-1-yl)methyl]amino}-5,5-dimethylhexanoic acid], the 50% inhibitory concentration (IC50) amounted to 1990 nM.

Regarding `CC(C)(C)CC[C@H](NCc1ccc2scnc2c1)C(=O)O` [Example 51, (2S)-2-{[(1,3-benzothiazol-5-yl)methyl]amino}-5,5-dimethylhexanoic acid], the IC50 is 320 nM.

Consider `Cn1nccc1CN[C@@H](CCC(C)(C)C)C(=O)O` [Example 52, (2S)-5,5-dimethyl-2-{[(1-methyl-1H-pyrazol-5-yl)methyl]amino}hexanoic acid], for which the IC50 came out at 1560 nM.

Compound `CC(C)(C)CC[C@H](NCc1ccc2ncsc2c1)C(=O)O` [Example 53, (2S)-2-{[(1,3-benzothiazol-6-yl)methyl]amino}-5,5-dimethylhexanoic acid] returned an IC50 of 590 nM.

Take `Cn1ncc2ccc(CN[C@@H](CCC(C)(C)C)C(=O)O)cc21` [Example 54, (2S)-5,5-dimethyl-2-{[(1-methyl-1H-indazol-6-yl)methyl]amino}hexanoic acid]: the IC50 stood at 870 nM.

With `CC(C)(C)CC[C@H](NCc1ccccc1-c1ccncc1)C(=O)O` [Example 56, (2S)-5,5-dimethyl-2-({[2-(pyridin-4-yl)phenyl]methyl}amino)hexanoic acid], the 50% inhibitory concentration (IC50) came to 1910 nM.

The compound `CC(C)(C)CC[C@H](NCc1cccc(-n2ccnc2)c1)C(=O)O` [Example 57, (2S)-2-({[3-(1H-imidazol-1-yl)phenyl]methyl}amino)-5,5-dimethylhexanoic acid] came in with a half-inhibitory concentration (IC50) of 1290 nM.

Consider `CC(C)(C)CC[C@H](NCc1ccncc1)C(=O)O` [Example 58, (2S)-5,5-dimethyl-2-{[(pyridin-4-yl)methyl]amino}hexanoic acid], for which the half-inhibitory concentration (IC50) was 810 nM.

As for `CC(C)(C)CC[C@H](NCc1ccccc1CO)C(=O)O` [Example 59, (S)-2-((2-(hydroxymethyl)benzyl)amino)-5,5-dimethylhexanoic acid hydrochloride], the IC50 was determined as 1280 nM.

`Cn1ncc2c(CN[C@@H](CCC(C)(C)C)C(=O)O)cccc21` [Example 61, (2S)-5,5-dimethyl-2-{[(1-methyl-1H-indazol-4-yl)methyl]amino}hexanoic acid] had an IC50 of 2830 nM.

`CC(C)(C)CC[C@H](NCc1cccc2[nH]ccc12)C(=O)O` [Example 62, (2S)-2-{[(1H-indol-4-yl)methyl]amino}-5,5-dimethylhexanoic acid] displayed a concentration for half-maximal inhibition (IC50) of over 9980 nM.

Compound `Cn1ccc2ccc(CN[C@@H](CCC(C)(C)C)C(=O)O)cc21` [Example 67] showed a 50% inhibitory concentration (IC50) of 3310 nM.

Take `Cn1ccc2cccc(CN[C@@H](CCC(C)(C)C)C(=O)O)c21` [Example 68]: the 50% inhibitory concentration (IC50) stood at 1200 nM.

For the compound `CC(C)(C)CC[C@H](NCc1cccnc1)C(=O)O` [Example 71, (2S)-5,5-dimethyl-2-{[(pyridin-3-yl)methyl]amino}hexanoic acid], the concentration for half-maximal inhibition (IC50) turned out to be 1130 nM.

In turn, `Cc1ccc(CN[C@@H](CCC(C)(C)C)C(=O)O)cn1` [Example 72] returned an IC50 of 1240 nM.

The compound `CC(C)(C)CC[C@H](NCc1ccc(Cl)cc1)C(=O)O` [Example 76, (2S)-2-{[(4-chlorophenyl)methyl]amino}-5,5-dimethylhexanoic acid] returned a concentration for half-maximal inhibition (IC50) of 790 nM.

`CC(C)(C)CC[C@H](NCc1cncc(Br)c1)C(=O)O` [Example 77, (2S)-2-{[(5-bromopyridin-3-yl)methyl]amino}-5,5-dimethylhexanoic acid]: the IC50 was determined as 600 nM.

In turn, `COc1ccc(CN[C@@H](CCC(C)(C)C)C(=O)O)c2ccccc12` [Example 79] came in with a concentration for half-maximal inhibition (IC50) of 950 nM.

Compound `CC(C)(C)CC[C@H](NCc1cncc2ccccc12)C(=O)O` [Example 80] had an IC50 of 790 nM.

The compound `CC(C)(C)CC[C@H](NCc1cccc2cnccc12)C(=O)O` [Example 81] came in with an IC50 of 790 nM.

The values are drawn from patent US20250268854A1, “2-AMINO-5,5-DIMETHYLHEXANOIC ACID DERIVATIVES AS SORTILIN MODULATORS FOR USE IN THE TREATMENT OF DISEASE OF THE CENTRAL NERVOUS SYSTEM” (c/o Vesper Bio ApS, priority 2021, published 2025).
